This passage reports EC50 results from patent US20230202985A1, “Indoles, Indazoles, and Related Analogs for Inhibiting YAP/TAZ-TEAD” (THE KATHOLIEKE UNIVERSITEIT LEUVEN, priority 2021, published 2023).

This test concerns YAP/TAZ-TEAD transcription. Briefly: Reporter gene assay for measuring the inhibition of YAP/TAZ-TEAD transcription (TEAD-responsive element luciferase reporter in Hek293T cells). It is filed as cell-based. The note with it: Homo sapiens, HEK-293T; Hek293T cells transfected with TEAD-responsive luciferase reporter, 24 hours incubation. As for the experimental part: Hek293T cells are cultured in DMEM supplemented with 10% fetal bovine serum, Sodium pyruvate, Sodium bicarbonate, L-glutamine. The cells are harvested and transiently transfected with TEAD-responsive element luciferase reporter. Transfected cells are plated in 384-wells plate containing pre-diluted compounds. After 24 hours incubation at 37° C./5% CO2, assay plates were cooled down to RT and levelled to an equal volume per well, prior to the addition of 25 uL luciferase substrate SteadyLite (Perkin Elmer)/well. The plate was shaken for 10 min at 600 rpm, centrifuged for 1 min at 500 rpm and measured with an Envision reader (PerkinElmer). The amount of relative light units produced by the TEAD reporter is used to calculated percent of inhibition.
The percent of reporter inhibition was calculated in the presence of a positive control inhibitor (100% inhibition) versus a condition with the presence of the vehicle basal activity of the reporter (0% inhibition). The ability of a test compound to inhibit this activity was determined as:
Percentage inhibition=[1−((RLU determined in the presence of vehicle−RLU determined for sample with test compound present) divided by (RLU determined in the presence of vehicle−RLU determined for sample with positive control inhibitor))]*100
The activities of example compounds tested are depicted in Table 6. The activity ranges A, B and C refer to IC50 values in the reporter gene assay as follows: “A”: IC50<1 μM; “B”: 1 μM≤IC50≤20 μM and “C”: IC50>20 μM; NT=not tested.
For orientation: A reporter such as luciferase makes a cellular process visible.
For `CS(=O)(=O)NCc1nn(-c2ccc(C(F)(F)F)cc2)c2ccc(OCC3CCOC3)cc12` (racemic) [compound 44, N-[[5-[[rac-tetrahydrofuran-3-yl]methoxy]-1-[4-(trifluoromethyl)phenyl]indazol-3-yl]methyl]methanesulfonamide], the EC50 lay within 1 to 20 µM.
Compound `CS(=O)(=O)NCc1nn(-c2ccc(C(F)(F)F)cc2)c2ccc(Oc3ccccc3)cc12` [Cpd. No. 45, N-[[5-phenoxy-1-[4-(trifluoromethyl)phenyl]indazol-3-yl]methyl]methanesulfonamide] yielded an EC50 of 1 to 20 µM.
In turn, `CCC(=O)NCc1nn(-c2ccc(C(F)(F)F)cc2)c2ccccc12` [compound 2, N-((1-(4-(trifluoromethyl)phenyl)-1H-indazol-3-yl)methyl)propionamide] displayed an EC50 of 1 to 20 µM.
Regarding `CCC(=O)NCc1nn(-c2ccc(OC(F)(F)F)cc2)c2ccccc12` [compound 5, N-((1-(4-(trifluoromethoxy)phenyl)-1H-indazol-3-yl)methyl)propionamide], the EC50 is 1 to 20 µM.
`CS(=O)(=O)NCc1nn(-c2ccc(OC(F)(F)F)cc2)c2ccccc12` [compound 6, N-((1-(4-(trifluoromethoxy)phenyl)-1H-indazol-3-yl)methyl)methanesulfonamide] registered an EC50 of 1 to 20 µM.
The compound `O=S1(=O)CCCN1Cc1nn(-c2ccc(C(F)(F)F)cc2)c2ccccc12` [compound 7, 2-((1-(4-(trifluoromethyl)phenyl)-1H-indazol-3-yl)methyl)isothiazolidine 1,1-dioxide] returned an EC50 of 1 to 20 µM.
For `CNC(=O)c1nn(-c2ccc(C(F)(F)F)cc2)c2ccccc12` [compound 8, N-methyl-1-(4-(trifluoromethyl)phenyl)-1H-indazole-3-carboxamide], the EC50 is > 20 µM.
Regarding `Cn1cc(S(=O)(=O)NCc2nn(-c3ccc(C(F)(F)F)cc3)c3ccccc23)cn1` [compound 9, 1-methyl-N-((1-(4-(trifluoromethyl)phenyl)-1H-indazol-3-yl)methyl)-1H-pyrazole-4-sulfonamide], the EC50 is > 20 µM.
In the case of `O=S(=O)(NCc1nn(-c2ccc(C(F)(F)F)cc2)c2ccccc12)c1cccnc1` [compound 10, N-((1-(4-(trifluoromethyl)phenyl)-1H-indazol-3-yl)methyl)pyridine-3-sulfonamide] it was > 20 µM; in that of `O=S(=O)(NCc1nn(-c2ccc(C(F)(F)F)cc2)c2ccccc12)C1CC1` [compound 11, N-((1-(4-(trifluoromethyl)phenyl)-1H-indazol-3-yl)methyl)cyclopropanesulfonamide], 1 to 20 µM.
Compound `CS(=O)(=O)NC(=O)c1nn(-c2ccc(C(F)(F)F)cc2)c2ccccc12` [compound 12, N-(methylsulfonyl)-1-(4-(trifluoromethyl)phenyl)-1H-indazole-3-carboxamide] gave an EC50 of 1 to 20 µM.
For `CN(C)S(=O)(=O)NCc1nn(-c2ccc(C(F)(F)F)cc2)c2ccccc12` [compound 13, N,N-dimethyl-N′-((1-(4-(trifluoromethyl)phenyl)-1H-indazol-3-yl)methyl)sulfamide], the EC50 lay in the range of 1 to 20 µM.
Regarding `O=C(NS(=O)(=O)C1CC1)c1nn(-c2ccc(C(F)(F)F)cc2)c2ccccc12` [compound 14, N-(cyclopropylsulfonyl)-1-(4-(trifluoromethyl)phenyl)-1H-indazole-3-carboxamide], the EC50 is > 20 µM.
`O=C(NCC(O)CO)c1nn(-c2ccc(C(F)(F)F)cc2)c2ccccc12` (stereo not shown) [compound 15, N-(2,3-dihydroxypropyl)-1-(4-(trifluoromethyl)phenyl)-1H-indazole-3-carboxamide] had an EC50 of 1 to 20 µM.
Then `CS(=N)(=O)NCc1nn(-c2ccc(C(F)(F)F)cc2)c2ccccc12` (stereo not shown) [compound 16, N-((1-(4-(trifluoromethyl)phenyl)-1H-indazol-3-yl)methyl)methanesulfonimidamide], with 1 to 20 µM.
Regarding `O=C1NCCN1Cc1nn(-c2ccc(C(F)(F)F)cc2)c2ccccc12` [compound 17, 1-((1-(4-(trifluoromethyl)phenyl)-1H-indazol-3-yl)methyl)imidazoiidin-2-one], the EC50 was < 1 µM.
Then `O=C1OCCN1Cc1nn(-c2ccc(C(F)(F)F)cc2)c2ccccc12` [compound 18, 3-((1-(4-(trifluoromethyl)phenyl)-1H-indazol-3-yl)methyl)oxazolidin-2-one], with < 1 µM; and `C=CC(=O)Nc1cn(-c2ccccc2)c2ccccc12` [compound 22, N-(1-phenyl-1H-indol-3-yl)acrylamide], with 1 to 20 µM.
With `C=CC(=O)Nc1cn(-c2ccc(C(C)C)cc2)c2ccccc12` [compound 23, N-(1-(4-isopropylphenyl)-1H-indol-3-yl)acrylamide], the EC50 was < 1 µM.
As to `C=CC(=O)Nc1cn(-c2ccc(Cl)cc2)c2ccccc12` [compound 24, N-(1-(4-chlorophenyl)-1H-indol-3-yl)acrylamide], the concentration for a half-maximal effect (EC50) is < 1 µM.
Then `C=CC(=O)Nc1cn(-c2cccc(Cl)c2)c2ccccc12` [compound 25, N-(1-(3-chlorophenyl)-1H-indol-3-yl)acrylamide], with 1 to 20 µM; and `C=CC(=O)Nc1cn(-c2ccc(-c3ccccc3)cc2)c2ccccc12` [compound 26, N-(1-([1,1′-biphenyl]-4-yl)-1H-indol-3-yl)acrylamide], with < 1 µM; and `CCC(=O)NCc1cn(-c2ccc(C(F)(F)F)cc2)c2ccccc12` [compound 28, N-((1-(4-(trifluoromethyl)phenyl)-1H-indol-3-yl)methyl)propionamide], with 1 to 20 µM.
Turning to `CCC(=O)NCc1cc2ccccc2n1-c1ccc(C(F)(F)F)cc1` [compound 30, N-((1-(4-(trifluoromethyl)phenyl)-1H-indol-2-yl)methyl)propionamide], the EC50 was > 20 µM.
For the compound `C=CC(=O)NCc1cc2ccccc2n1Cc1cccc(C(F)(F)F)c1` [compound 32, N-((1-(3-(trifluoromethyl)benzyl)-1H-indol-2-yl)methyl)acrylamide], the EC50 was < 1 µM.
In the case of `C=CC(=O)NC1C(=O)N(c2ccc(C(F)(F)F)cc2)c2ccccc21` (stereo not shown) [compound 33, N-(2-oxo-1-(4-(trifluoromethyl)phenyl)indolin-3-yl)acrylamide] it was 1 to 20 µM.
On to `CC(=O)NC1C(=O)N(c2ccc(C(F)(F)F)cc2)c2ccccc21` (stereo not shown) [compound 34, N-(2-oxo-1-(4-(trifluoromethyl)phenyl)indolin-3-yl)acetamide], for which the EC50 was > 20 µM.
Then `Cn1ccc(-c2cc(-c3ccccc3)cn3cc(CC(=O)O)nc23)n1` [compound 35, 2-(8-(1-methyl-1H-pyrazol-3-yl)-6-phenylimidazo[1,2-a]pyridin-2-yl)acetic acid], with > 20 µM; and `O=C(O)Cc1cn2cc(-c3ccccc3)cc(-c3cnn(Cc4cccnc4)c3)c2n1` [compound 36, 2-(6-phenyl-8-(1-(pyridin-3-ylmethyl)-1H-pyrazol-4-yl)imidazo[1,2-a]pyridin-2-yl)acetic acid], with > 20 µM; and `CNC(=O)Cc1cn2cc(-c3ccccc3)cc(-c3ccn(C)n3)c2n1` [compound 37, N-methyl-2-(8-(1-methyl-1H-pyrazol-3-yl)-6-phenylimidazo[1,2-a]pyridin-2-yl)acetamide], with > 20 µM.
On to `Cn1ccc(-c2cc(Nc3ccccc3)cn3cc(CC(=O)O)nc23)n1` [compound 38, 2-(8-(1-methyl-1H-pyrazol-3-yl)-6-(phenylamino)imidazo[1,2-a]pyridin-2-yl)acetic acid], for which the 50% effective concentration (EC50) was > 20 µM.

The EC50 is the concentration that produces a half-maximal response. A low value points to higher potency in that assay.
